For data set [1] the following is noted: 93.2 kPa, Liquid; for speed of sound: Frequency=3 MHz, Sing-around technique in a fixed-path interferometer; for mass density: Vibrating tube method.
The nature of data set [2]: xn = mol fraction of the nth substance listed. The following applies: 93.2 kPa, Liquid, x2 = 0; for speed of sound: Frequency=3 MHz, Sing-around technique in a fixed-path interferometer; for mass density: Vibrating tube method.

± gives the expanded uncertainty stated by the source.

What is called speed of sound is the propagation velocity of pressure waves in the medium. One may read the mass density as the mass of a sample divided by its volume.

Consider `CCCCO` [butan-1-ol], for which the speed of sound in data set [1] (293.15 K) was 1256.8 ± 5.3 m/s; in data set [1] (298.15 K) it was 1239.7 ± 5.3 m/s; in data set [1] (303.15 K), 1222.8 ± 5.3 m/s; in data set [1] (308.15 K), 1206.1 ± 5.3 m/s; in data set [1] (313.15 K), 1189.5 ± 5.2 m/s. Moreover, the mass density in data set [1] (293.15 K) was 809.523 ± 4 kg/m3; in data set [1] (298.15 K), 805.71 ± 4 kg/m3; in data set [1] (303.15 K) it was 801.872 ± 4 kg/m3; in data set [1] (308.15 K), 798.004 ± 4 kg/m3; in data set [1] (313.15 K), 794.103 ± 4 kg/m3.
Turning to `CCCCO` [butan-1-ol] + CCCC(=O)[O-].CCCC[NH3+], the speed of sound in data set [2] (293.15 K) is listed as 1256.8 ± 5.3 m/s; in data set [2] (298.15 K) it was 1239.7 ± 5.3 m/s; in data set [2] (303.15 K), 1222.8 ± 5.3 m/s; in data set [2] (308.15 K), 1206.1 ± 5.3 m/s; in data set [2] (313.15 K), 1189.5 ± 5.2 m/s. Moreover, the mass density in data set [2] (293.15 K) was found to be 809.523 ± 4 kg/m3; in data set [2] (298.15 K) it was 805.71 ± 4 kg/m3; in data set [2] (303.15 K) it was 801.872 ± 4 kg/m3; in data set [2] (308.15 K), 798.004 ± 4 kg/m3; in data set [2] (313.15 K) it was 794.103 ± 4 kg/m3.
On to `CCO` [ethanol], for which the speed of sound in data set [1] (293.15 K) is on record as 1161 ± 5.2 m/s; in data set [1] (298.15 K), 1143.8 ± 5.2 m/s; in data set [1] (303.15 K) it was 1126.8 ± 5.2 m/s; in data set [1] (308.15 K), 1109.9 ± 5.2 m/s; in data set [1] (313.15 K) it was 1093.1 ± 5.2 m/s. Besides, the mass density in data set [1] (293.15 K) came to 789.657 ± 4 kg/m3; in data set [1] (298.15 K), 785.366 ± 4 kg/m3; in data set [1] (303.15 K) it was 781.043 ± 4 kg/m3; in data set [1] (308.15 K) it was 776.696 ± 4 kg/m3; in data set [1] (313.15 K), 772.313 ± 4 kg/m3.
Turning to `CCO` [ethanol] + CCCC(=O)[O-].CCCC[NH3+], the speed of sound is on record as 1161 ± 5.2 m/s in data set [2] (293.15 K); 1143.8 ± 5.2 m/s in data set [2] (298.15 K); 1126.8 ± 5.2 m/s in data set [2] (303.15 K); 1109.9 ± 5.2 m/s in data set [2] (308.15 K); 1093.1 ± 5.2 m/s in data set [2] (313.15 K). Besides, the mass density in data set [2] (293.15 K) is listed as 789.657 ± 4 kg/m3; in data set [2] (298.15 K), 785.366 ± 4 kg/m3; in data set [2] (303.15 K) it was 781.043 ± 4 kg/m3; in data set [2] (308.15 K) it was 776.696 ± 4 kg/m3; in data set [2] (313.15 K) it was 772.313 ± 4 kg/m3.
`CO` [methanol]: the speed of sound turned out to be 1119.1 ± 5.2 m/s in data set [1] (293.15 K); 1102.5 ± 5.2 m/s in data set [1] (298.15 K); 1086 ± 5.2 m/s in data set [1] (303.15 K); 1069.7 ± 5.2 m/s in data set [1] (308.15 K); 1053.6 ± 5.2 m/s in data set [1] (313.15 K). In addition, the mass density amounted to 791.347 ± 4 kg/m3 in data set [1] (293.15 K); 786.636 ± 4 kg/m3 in data set [1] (298.15 K); 781.907 ± 4 kg/m3 in data set [1] (303.15 K); 777.156 ± 4 kg/m3 in data set [1] (308.15 K); 772.385 ± 4 kg/m3 in data set [1] (313.15 K).
For the molecule `CO` [methanol] + CCCC(=O)[O-].CCCC[NH3+], the speed of sound worked out at 1119.1 ± 5.2 m/s in data set [2] (293.15 K); 1102.5 ± 5.2 m/s in data set [2] (298.15 K); 1086 ± 5.2 m/s in data set [2] (303.15 K); 1069.7 ± 5.2 m/s in data set [2] (308.15 K); 1053.6 ± 5.2 m/s in data set [2] (313.15 K). The mass density in data set [2] (293.15 K) was found to be 791.347 ± 4 kg/m3; in data set [2] (298.15 K), 786.636 ± 4 kg/m3; in data set [2] (303.15 K), 781.907 ± 4 kg/m3; in data set [2] (308.15 K), 777.156 ± 4 kg/m3; in data set [2] (313.15 K), 772.385 ± 4 kg/m3.
For the molecule `CCCC(=O)[O-].CCCC[NH3+]` [n-butylammonium butanoate], the speed of sound is listed as 1431.5 ± 5.3 m/s in data set [1] (293.15 K); 1410.3 ± 5.3 m/s in data set [1] (298.15 K); 1390.4 ± 5.3 m/s in data set [1] (303.15 K); 1371.5 ± 5.3 m/s in data set [1] (308.15 K); 1353.6 ± 5.3 m/s in data set [1] (313.15 K). The mass density in data set [1] (293.15 K) amounted to 928.794 ± 4 kg/m3; in data set [1] (298.15 K) it was 925.509 ± 4 kg/m3; in data set [1] (303.15 K), 922.217 ± 4 kg/m3; in data set [1] (308.15 K), 918.88 ± 4 kg/m3; in data set [1] (313.15 K) it was 915.567 ± 4 kg/m3.
For `CCCCCO` [pentan-1-ol], the speed of sound in data set [1] (293.15 K) is reported as 1292.8 ± 5.3 m/s; in data set [1] (298.15 K) it was 1275.7 ± 5.3 m/s; in data set [1] (303.15 K) it was 1258.8 ± 5.3 m/s; in data set [1] (308.15 K), 1242.1 ± 5.3 m/s; in data set [1] (313.15 K) it was 1225.5 ± 5.3 m/s. Besides, the mass density in data set [1] (293.15 K) is 814.807 ± 4 kg/m3; in data set [1] (298.15 K) it was 811.144 ± 4 kg/m3; in data set [1] (303.15 K) it was 807.455 ± 4 kg/m3; in data set [1] (308.15 K) it was 803.736 ± 4 kg/m3; in data set [1] (313.15 K), 799.99 ± 4 kg/m3.
`CCCCCO` [pentan-1-ol] + CCCC(=O)[O-].CCCC[NH3+]: the speed of sound in data set [2] (293.15 K) was 1292.8 ± 5.3 m/s; in data set [2] (298.15 K), 1275.7 ± 5.3 m/s; in data set [2] (303.15 K) it was 1258.8 ± 5.3 m/s; in data set [2] (308.15 K), 1242.1 ± 5.3 m/s; in data set [2] (313.15 K), 1225.5 ± 5.3 m/s. The mass density in data set [2] (293.15 K) worked out at 814.807 ± 4 kg/m3; in data set [2] (298.15 K), 811.144 ± 4 kg/m3; in data set [2] (303.15 K), 807.455 ± 4 kg/m3; in data set [2] (308.15 K), 803.736 ± 4 kg/m3; in data set [2] (313.15 K), 799.99 ± 4 kg/m3.
Consider `CCCO` [propan-1-ol], for which the speed of sound in data set [1] (293.15 K) is reported as 1223.1 ± 5.3 m/s; in data set [1] (298.15 K), 1205.8 ± 5.3 m/s; in data set [1] (303.15 K), 1188.6 ± 5.3 m/s; in data set [1] (308.15 K) it was 1171.6 ± 5.3 m/s; in data set [1] (313.15 K), 1154.9 ± 5.3 m/s. Moreover, the mass density in data set [1] (293.15 K) was determined as 803.625 ± 4 kg/m3; in data set [1] (298.15 K) it was 799.62 ± 4 kg/m3; in data set [1] (303.15 K) it was 795.582 ± 4 kg/m3; in data set [1] (308.15 K), 791.511 ± 4 kg/m3; in data set [1] (313.15 K) it was 787.407 ± 4 kg/m3.
For `CCCO` [propan-1-ol] + CCCC(=O)[O-].CCCC[NH3+], the speed of sound in data set [2] (293.15 K) came out at 1223.1 ± 5.3 m/s; in data set [2] (298.15 K), 1205.8 ± 5.3 m/s; in data set [2] (303.15 K) it was 1188.6 ± 5.3 m/s; in data set [2] (308.15 K), 1171.6 ± 5.3 m/s; in data set [2] (313.15 K), 1154.9 ± 5.3 m/s. In addition, the mass density in data set [2] (293.15 K) worked out at 803.625 ± 4 kg/m3; in data set [2] (298.15 K) it was 799.62 ± 4 kg/m3; in data set [2] (303.15 K), 795.582 ± 4 kg/m3; in data set [2] (308.15 K), 791.511 ± 4 kg/m3; in data set [2] (313.15 K) it was 787.407 ± 4 kg/m3.
